These are literature values, as cited in patent publication US12508236B2, “Solid nanoparticle with inorganic coating” (Nanexa AB, priority 2013, dated 2025).

Entries after “also recorded” stand apart in the source; their conditions may differ.

Consider `CCOC(=O)C1=C(C)NC(C)=C(C(=O)OC)C1c1cccc(Cl)c1Cl` (racemic) [Felodipine, (RS)-3-ethyl 5-methyl 4-(2,3-dichlorophenyl)-2,6-dimethyl-1,4-dihydropyridine-3,5-dicarboxylate], for which the water solubility entry is recorded as “very low water solubility”.
As for `CC(=O)Nc1ccc(O)cc1` [Paracetamol, N-(4-hydroxifenyl)acetamid], the water solubility entry was “high water solubility; also recorded: very water soluble”. Moreover, the solubility in heptane entry (heptane) was “low solubility”.
